# Like-named read-outs stand apart in the source and are kept apart here. Marks after values point to notes of the source that are not given here.
# Key:
# [1] = in humans; filgotinib unchanged, metabolite as such; no reference given; cited from earlier work
# [2] = system: JAK1; conditions: human whole-blood assay; cited from earlier work
# [3] = Effect of renal impairment; conditions: for AUC0–24 h / Ae0–24 h (amount excreted in the urine over 24 h) / CLR (renal clearance) / t½,λz (apparent terminal half-life) / R (metabolite-to-parent ratio, AUC0–24 h) / tmax: 100 mg QD; for AUC0–24 h / Ae0–24 h (amount excreted in the urine over 24 h) / CLR (renal clearance) / t½,λz (apparent terminal half-life) / R (metabolite-to-parent ratio, AUC0–24 h) / tmax / Cmax: day 10; for AUC0–24 h / Ae0–24 h (amount excreted in the urine over 24 h) / CLR (renal clearance) / t½,λz (apparent terminal half-life) / Cmax: arithmetic mean (CV%); for R (metabolite-to-parent ratio, AUC0–24 h): geometric mean (CV%); for tmax: median (min–max); for Cmax: filgotinib 100 mg QD 10 days, tablet, fasted
# [4] = for AUC0–24 h / Ae0–24 h (amount excreted in the urine over 24 h) / CLR (renal clearance) / t½,λz (apparent terminal half-life) / R (metabolite-to-parent ratio, AUC0–24 h) / tmax: 100 mg QD; for AUC0–24 h / Ae0–24 h (amount excreted in the urine over 24 h) / CLR (renal clearance) / t½,λz (apparent terminal half-life) / R (metabolite-to-parent ratio, AUC0–24 h) / tmax / Cmax: day 10; for AUC0–24 h / Ae0–24 h (amount excreted in the urine over 24 h) / CLR (renal clearance) / t½,λz (apparent terminal half-life) / Cmax: arithmetic mean (CV%); for R (metabolite-to-parent ratio, AUC0–24 h): geometric mean (CV%); for tmax: median (min–max); for Cmax: filgotinib 100 mg QD 10 days, capsule, fed, N = 10
# [5] = ≥75 years relative to 40–50 years, point estimate [90% CI]
smiles,measurement,setting,value
Nc1nc2cccc(-c3ccc(CN4CCS(=O)(=O)CC4)cc3)n2n1 [Metabolite],Fraction excreted in the urine,[1],≥ 50%
same,Reduced potency versus filgotinib,[2],19 fold
same,AUC0–24 h,[3]; mild RI,30.1 (29.3) μg.h ml^–1
same,Ae0–24 h (amount excreted in the urine over 24 h),[3]; mild RI,35.7 (40.3) % dose
same,CLR (renal clearance),[3]; mild RI,1.21 (42.1) l h^–1
same,"t½,λz (apparent terminal half-life)",[3]; mild RI,25.4 (24.8) h
same,"R (metabolite-to-parent ratio, AUC0–24 h)",[3]; mild RI,15.9 (22.0)
same,tmax,[3]; mild RI,3.3 (1.5–5) h
same,AUC0–24 h,[3]; moderate RI,42.7 (38.4) μg.h ml^–1
same,Ae0–24 h (amount excreted in the urine over 24 h),[3]; moderate RI,29.9 (24.1) % dose
same,CLR (renal clearance),[3]; moderate RI,0.781 (47.8) l h^–1
same,"t½,λz (apparent terminal half-life)",[3]; moderate RI,31.7 (24.9) h
same,"R (metabolite-to-parent ratio, AUC0–24 h)",[3]; moderate RI,16.7 (35.8)
same,tmax,[3]; moderate RI,2.3 (0.5–5) h
same,AUC0–24 h,[3]; normal renal function,24.9 (31.7) μg.h ml^–1
same,Ae0–24 h (amount excreted in the urine over 24 h),[3]; normal renal function,37.4 (11.6) % dose
same,CLR (renal clearance),[3]; normal renal function,1.59 (24.5) l h^–1
same,"t½,λz (apparent terminal half-life)",[3]; normal renal function,20.8 (17.1) h
same,"R (metabolite-to-parent ratio, AUC0–24 h)",[3]; normal renal function,13.8 (21.5)
same,tmax,[3]; normal renal function,3 (2–4) h
same,AUC0–24 h,[3]; severe RI,66.6 (18.5) μg.h ml^–1
same,Ae0–24 h (amount excreted in the urine over 24 h),[3]; severe RI,32.1 (9.36) % dose
same,CLR (renal clearance),[3]; severe RI,0.488 (10.6) l h^–1
same,"t½,λz (apparent terminal half-life)",[3]; severe RI,43.6 (12.6) h
same,"R (metabolite-to-parent ratio, AUC0–24 h)",[3]; severe RI,26.0 (20.4)
same,tmax,[3]; severe RI,3 (3–4) h
same,Cmax,"[3]; mild RI, N = 6",1.54 (31.3) μg ml^–1
same,Cmax,"[3]; moderate RI, N = 6",2.35 (35.4) μg ml^–1
same,Cmax,"[3]; normal renal function, N = 9",1.63 (31.9) μg ml^–1
same,Cmax,"[3]; severe RI, N = 3",3.43 (14.6) μg ml^–1
same,CLR drop compared with subjects with normal renal function,[3]; moderate RI vs normal renal function,51%
same,Steady-state plasma concentrations reached,[3]; moderate and severe RI,5 days
same,Steady-state plasma concentrations reached,[3]; normal renal function and mild RI,3 days
same,CLR lower (drop) compared with subjects with normal renal function,[3]; severe RI vs normal renal function,69%
same,AUC0–24 h,[4]; age 40–50 years,29.4 (27.3) μg.h ml^–1
same,Ae0–24 h (amount excreted in the urine over 24 h),[4]; age 40–50 years,34.3 (22.3) ^b % dose
same,CLR (renal clearance),[4]; age 40–50 years,1.25 (19.3) ^b l h^–1
same,"t½,λz (apparent terminal half-life)",[4]; age 40–50 years,17.8 (17.9) h
same,Ae0–24 h (amount excreted in the urine over 24 h),"[4]; age 40–50 years, listed as metabolite",34.3 % dose
same,"R (metabolite-to-parent ratio, AUC0–24 h)",[4]; age 40–50 years,18.8 (25.1)
same,tmax,[4]; age 40–50 years,4.0 (2.0–5.0) h
same,AUC0–24 h,[4]; age 65–74 years,34.2 (17.3) μg.h ml^–1
same,Ae0–24 h (amount excreted in the urine over 24 h),[4]; age 65–74 years,37.4 (13.2) ^c % dose
same,CLR (renal clearance),[4]; age 65–74 years,1.13 (20.9) ^c l h^–1
same,"t½,λz (apparent terminal half-life)",[4]; age 65–74 years,24.7 (23.3) h
same,"R (metabolite-to-parent ratio, AUC0–24 h)",[4]; age 65–74 years,19.4 (22.0)
same,tmax,[4]; age 65–74 years,3.0 (3.0–5.0) h
same,AUC0–24 h,[4]; age ≥75 years,40.9 (21.9) μg.h ml^–1
same,Ae0–24 h (amount excreted in the urine over 24 h),[4]; age ≥75 years,37.6 (15.4) ^b % dose
same,CLR (renal clearance),[4]; age ≥75 years,0.926 (29.5) ^b l h^–1
same,"t½,λz (apparent terminal half-life)",[4]; age ≥75 years,23.5 (21.2) h
same,Ae0–24 h (amount excreted in the urine over 24 h),"[4]; age ≥75 years, listed as metabolite",37.6 % dose
same,"R (metabolite-to-parent ratio, AUC0–24 h)",[4]; age ≥75 years,18.4 (16.4)
same,tmax,[4]; age ≥75 years,5.0 (3.0–5.0) h
same,Cmax,[4]; age 40–50 years,1.69 (26.5) μg ml^–1
same,Cmax,[4]; age 65–74 years,1.90 (15.5) μg ml^–1
same,Cmax,[4]; age ≥75 years,2.20 (19.4) μg ml^–1
same,Apparent elimination half-life across age groups,[4]; mean over the three age groups,approximately 22 h
same,Time to steady state,"[4]; predose (trough) concentrations, regardless of the age group",≤ 4 dosing days
same,Fold-change in steady-state AUC0–24 h,[4]; [5],1.33 fold
same,Fold-change in steady-state Cmax,[4]; [5],1.25 fold
